Measurements taken from PubChem BioAssay (NCI).
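All cell lines were grown in 96-well plates and treated with compound for 48 hours. TGI denotes the concentration required for complete inhibition of growth.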

Tests used:
Assay in all cases: growth of human tumour cells (NCI), 48 h
[1] = system: MDA-MB-231 breast
[2] = system: COLO 205 colon
[3] = system: HCT-116 colon
[4] = system: T-47D breast
[5] = system: SF-539 CNS
[6] = system: ACHN renal
[7] = system: A498 renal
[8] = system: HOP-92 NSCLC
[9] = system: SW-620 colon
[10] = system: EKVX NSCLC
[11] = system: SK-OV-3 ovarian
[12] = system: HOP-62 NSCLC
[13] = system: MCF7 breast
[14] = system: BT-549 breast
[15] = system: M14 melanoma
[16] = system: SF-268 CNS
[17] = system: OVCAR-3 ovarian
[18] = system: PC-3 prostate
[19] = system: U251 CNS
[20] = system: HL-60(TB) leukemia
[21] = system: UACC-257 melanoma
[22] = system: K-562 leukemia
[23] = system: SK-MEL-28 melanoma
[24] = system: SK-MEL-2 melanoma
[25] = system: IGROV1 ovarian
[26] = system: KM12 colon
[27] = system: SN12C renal
[28] = system: HCC-2998 colon
[29] = system: SK-MEL-5 melanoma
[30] = system: SF-295 CNS
[31] = system: OVCAR-5 ovarian
[32] = system: CCRF-CEM leukemia
[33] = system: TK-10 renal
[34] = system: NCI/ADR-RES ovarian
[35] = system: MDA-N
[36] = system: DU-145 prostate
[37] = system: RPMI-8226 leukemia
[38] = system: CAKI-1 renal
[39] = system: LOX IMVI melanoma
[40] = system: MOLT-4 leukemia
[41] = system: HCT-15 colon
[42] = system: A549 NSCLC
[43] = system: OVCAR-4 ovarian
[44] = system: UO-31 renal
[45] = system: 786-0 renal
[46] = system: MDA-MB-435
[47] = system: MALME-3M melanoma
[48] = system: SR leukemia
[49] = system: SNB-75 CNS
[50] = system: SNB-19 CNS
[51] = system: NCI-H522 lung
[52] = system: OVCAR-8 ovarian
[53] = system: HS 578T breast
[54] = system: RXF 393 renal
[55] = system: UACC-62 melanoma
[56] = system: NCI-H23 lung
[57] = system: HT29 colon
[58] = system: NCI-H460 lung
[59] = system: NCI-H226 lung

O=C(O)[C@H](CCC[C@H]1C(=O)O[C@H](c2ccccc2)[C@H](c2ccccc2)N1C(=O)OCc1ccccc1)N[C@@H](c1ccccc1)[C@H](O)c1ccccc1
TGI [1]: 33.1 µM
TGI [2]: > 100 µM
TGI [3]: 44.9 µM
TGI [4]: > 100 µM
TGI [5]: 34.4 µM
TGI [6]: > 100 µM
TGI [7]: 62.1 µM
TGI [8]: 49.5 µM
TGI [9]: 68.5 µM
TGI [10]: > 100 µM
TGI [11]: > 100 µM
TGI [12]: 39 µM
TGI [13]: > 100 µM
TGI [14]: 78.9 µM
TGI [15]: > 100 µM
TGI [16]: > 100 µM
TGI [17]: 48.4 µM
TGI [18]: > 100 µM
TGI [19]: 31.1 µM
TGI [20]: 38.8 µM
TGI [21]: > 100 µM
TGI [22]: > 100 µM
TGI [23]: 39 µM
TGI [24]: 40.8 µM
TGI [25]: > 100 µM
TGI [26]: 40.4 µM
TGI [27]: 42.1 µM
TGI [28]: 44 µM
TGI [29]: 43 µM
TGI [30]: 81 µM
TGI [31]: > 100 µM
TGI [32]: 46.4 µM
TGI [33]: > 100 µM
TGI [34]: > 100 µM
TGI [35]: 53.1 µM
TGI [36]: > 100 µM
TGI [37]: 54 µM
TGI [38]: > 100 µM
TGI [39]: 51.9 µM
TGI [40]: 62 µM
TGI [41]: > 100 µM
TGI [42]: > 100 µM
TGI [43]: 75.9 µM
TGI [44]: > 100 µM
TGI [45]: > 100 µM
TGI [46]: 40.8 µM
TGI [47]: 42.2 µM
TGI [48]: 52.3 µM
TGI [49]: 55.1 µM
TGI [50]: 61.3 µM
TGI [51]: 38.6 µM
TGI [52]: 45.7 µM
TGI [53]: 58.9 µM
TGI [54]: 47.9 µM
TGI [55]: 44.1 µM
TGI [56]: 85.4 µM
TGI [57]: > 100 µM
TGI [58]: > 100 µM

Cc1cc2nc3c(C#N)c4c(c(-c5ccc(Cl)cc5)n3c2cc1C)CCC4
TGI [1]: 49.1 µM
TGI [2]: 39.1 µM
TGI [3]: 32.7 µM
TGI [4]: 52.1 µM
TGI [5]: 78.9 µM
TGI [6]: 59.5 µM
TGI [7]: 79.4 µM
TGI [8]: 50.7 µM
TGI [9]: > 100 µM
TGI [10]: 54.4 µM
TGI [11]: 34.1 µM
TGI [12]: 46.2 µM
TGI [13]: > 100 µM
TGI [14]: 41.8 µM
TGI [15]: 32.7 µM
TGI [16]: 57.9 µM
TGI [17]: 40.7 µM
TGI [18]: 97.7 µM
TGI [59]: 41 µM
TGI [19]: 78.4 µM
TGI [20]: 48.3 µM
TGI [21]: 41.4 µM
TGI [22]: 53.6 µM
TGI [23]: 50.3 µM
TGI [24]: 36 µM
TGI [25]: 36.2 µM
TGI [26]: 47.8 µM
TGI [27]: 75.4 µM
TGI [29]: 40.3 µM
TGI [30]: 39.8 µM
TGI [32]: 70.7 µM
TGI [33]: 60.5 µM
TGI [34]: > 100 µM
TGI [35]: 88 µM
TGI [36]: 44 µM
TGI [37]: 74.4 µM
TGI [38]: 42.9 µM
TGI [39]: 90.6 µM
TGI [40]: 57.5 µM
TGI [41]: 70.3 µM
TGI [42]: > 100 µM
TGI [43]: 97.1 µM
TGI [44]: 39.4 µM
TGI [45]: 35 µM
TGI [46]: 54.8 µM
TGI [47]: 46.8 µM
TGI [48]: 45.7 µM
TGI [50]: 37.8 µM
TGI [51]: 35.4 µM
TGI [53]: 47.9 µM
TGI [54]: > 100 µM
TGI [55]: 33.9 µM
TGI [56]: 35.4 µM
TGI [57]: 40.5 µM
TGI [58]: > 100 µM
